System: hair follicle neogenesis
Assay: Patch assay, hair follicle neogenesis in vivo
Design: species or system nu/nu mouse
Details: 100 μM peptide vs scrambled peptide, N=3 patches (FIG. 2)
Method: Next, we used a patch assay to test is TSN peptides can induce hair follicle neogenesis in vivo. Epidermal aggregates were resuspended in DMEM/F12 at 750,000 aggregates/750 μL (1000 aggregates/μL) and spheroids were resuspended in DMEM/F12 at 1400 spheroids/140 μL (10 spheroids/μL). 10 million dermal cells were resuspended in 400 μL DMEM/F12 (25,000 cell/μL or 1.25E6 per 50 μL). […] Using a dissecting microscope the number of hair follicles were counted for each implantation from the mucosal side of the skin (FIG. 2).
Preparation of spheroids: Dermal Papilla (DP) cells were trypsinized, neutralized and counted. […]
Preparation of epidermal Cell aggregates: From 12 neonatal foreskins, the epidermis was separated from the dermis using dispase incubation overnight. […] The final pellet was resuspended in 6 mL DMEM/F12 (for 12 skins) and the aggregates were counted using hemocytometer. […]

## HSPDIQLQKGLTFEPIQIK [TSN6, 19 amino acid peptide derived from multimerin-1, Coiled coil domain]
  number of hair follicles (hair follicle formation): two-fold increase

Reference: patent US20250276999A1, “PEPTIDES FOR PROMOTING HAIR FOLLICLE NEOGENESIS, AND PREVENTION/MITIGATION OF UNTOWARD EFFECTS OF RADIATION TREATMENT” (Trustees of Tufts College, priority 2022, published 2025)
